Assay results taken from patent publication US20090270413A1, “DI-T-BUTYLPHENYL PIPERAZINES AS CALCIUM CHANNEL BLOCKERS” (priority 2008, published 2009).

How the values were obtained:
Type in all cases: cell-based
Human Cav2.2 channels = molecular target: T1, Human Cav2.2 channels (Homo sapiens, UniProt Q00975); test: Block of Cav2.2 (N-type) channels expressed in HEK293 cells; settings: for inhibition at 10 µM / inhibition at 30 µM: HEK293; for inhibition at 10 µM: read-out: Cav 2.2 % Inh @ 10 μM; for inhibition at 30 µM: read-out: Cav 2.2 % Inh @ 30 μM; for IC50: read-out: Cav 2.2 IC50
T1 construct: expressed in transfected cells
From the text: Human Cav2.2 channels were stably expressed in HEK293 cells along with alpha2-delta and beta subunits of voltage-gated calcium channels. An inwardly rectifying potassium channel (Kir2.3) was also expressed in these cells to allow more precise control of the cell membrane potential by extracellular potassium concentration. At low bath potassium concentration, the membrane potential is relatively negative, and is depolarized as the bath potassium concentration is raised. In this way, the bath potassium concentration can be used to regulate the voltage-dependent conformations of the channels. Compounds are incubated with cells in the presence of low (4 mM) potassium or elevated (12, 25 or 30 mM) potassium to determine the affinity for compound block of resting (closed) channels at 4 mM potassium or affinity for block of open and inactivated channels at 12, 25 or 30 mM potassium. After the incubation period, Cav2.2 channel opening is triggered by addition of higher concentration of potassium (70 mM final concentration) to further depolarize the cell. The degree of state-dependent block can be estimated from the inhibitory potency of compounds after incubation in different potassium concentrations.
Calcium influx through Cav2.2 channels is determined using a calcium sensitive fluorescent dye in combination with a fluorescent plate reader. Fluorescent changes were measured with either a VIPR (Aurora Instruments) or FLIPR (Molecular Devices) plate reader.
Protocol • 1. Seed cells in Poly-D-Lysine Coated 96 or 384-well plate and keep in a 37° C.-10% CO2 incubator overnight • 2. Remove media, wash cells with 0.2 mL (96-well plate) or 0.05 mL (384-well plate) Dulbecco's Phosphate Buffered Saline (D-PBS) with calcium & magnesium (Invitrogen; 14040) • 3. Add 0.1 mL (96-well plate) or 0.05 mL (384-well plate) of 4 μM fluor-4 (Molecular Probes; F-14202) and 0.02% Pluronic acid (Molecular Probes; P-3000) prepared in D-PBS with calcium & magnesium (Invitrogen; 14040) supplemented with 10 mM Glucose & 10 mM Hepes/NaOH; pH 7.4 • 4. Incubate in the dark at 25° C. for 60-70 min • 5. Remove dye, wash cells with 0.1 mL (96-well plate) or 0.06 mL (384-well plate) of 4, 12, 25, or 30 mM Potassium Pre-polarization Buffer (PPB) • 6. Add 0.1 mL (96-well plate) or 0.03 mL (384-well plate) of 4, 12, 25, 30 mM PPB with or without test compound • 7. Incubate in the dark at 25° C. for 30 min • 8. Read cell plate on VIPR instrument, Excitation=480 nm, Emission=535 nm • 9. With VIPR continuously reading, add 0.1 mL (96-well plate) or 0.03 mL (384-well plate) of Depolarization Buffer (DB), which is 2× the final assay concentration, to the cell plate.
Block of N-type calcium channels is evaluated utilizing the IonWorks HT 384 well automated patch clamp electrophysiology device. This instrument allows synchronous recording from 384 well (48 at a time). A single whole cell recording is made in each well. Whole cell recording is established by perfusion of the internal compartment with amphotericin B.
The voltage protocol is designed to detect use-dependent block. A 2 Hz train of depolarizations (twenty 25 ms steps to +20 mV). The experimental sequence consists of a control train (pre-compound), incubation of cells with compound for 5 minutes, followed by a second train (post-compound). Use dependent block by compounds is estimated by comparing fractional block of the first pulse in the train to block of the 20th pulse.
Parallel patch clamp electrophysiology is performed using IonWorks HT (Molecular Devices Corp) essentially as described by Kiss and colleagues (Kiss et al. 2003; Assay and Drug Development Technologies, 1:127-135). Briefly, a stable HEK 293 cell line (referred to as CBK) expressing the N-type calcium channel subunits (α1B, α2δ, β3a) and an inwardly rectifying potassium channel (Kir2.3) is used to record barium current through the N-type calcium channel. Cells are grown in T75 culture plates to 60-90% confluence before use. […]

[1] = molecular target: T2, Cav3.1 (T-type channel alpha-1G) (Homo sapiens, UniProt O43497); test: T-type calcium channel voltage-clamp assay, Cav3.1; settings: read-out: Cav 3.1 IC50
T2 construct: expressed in transfected cells; host or cells: HEK 293
T2 sequence (O43497 whole entry): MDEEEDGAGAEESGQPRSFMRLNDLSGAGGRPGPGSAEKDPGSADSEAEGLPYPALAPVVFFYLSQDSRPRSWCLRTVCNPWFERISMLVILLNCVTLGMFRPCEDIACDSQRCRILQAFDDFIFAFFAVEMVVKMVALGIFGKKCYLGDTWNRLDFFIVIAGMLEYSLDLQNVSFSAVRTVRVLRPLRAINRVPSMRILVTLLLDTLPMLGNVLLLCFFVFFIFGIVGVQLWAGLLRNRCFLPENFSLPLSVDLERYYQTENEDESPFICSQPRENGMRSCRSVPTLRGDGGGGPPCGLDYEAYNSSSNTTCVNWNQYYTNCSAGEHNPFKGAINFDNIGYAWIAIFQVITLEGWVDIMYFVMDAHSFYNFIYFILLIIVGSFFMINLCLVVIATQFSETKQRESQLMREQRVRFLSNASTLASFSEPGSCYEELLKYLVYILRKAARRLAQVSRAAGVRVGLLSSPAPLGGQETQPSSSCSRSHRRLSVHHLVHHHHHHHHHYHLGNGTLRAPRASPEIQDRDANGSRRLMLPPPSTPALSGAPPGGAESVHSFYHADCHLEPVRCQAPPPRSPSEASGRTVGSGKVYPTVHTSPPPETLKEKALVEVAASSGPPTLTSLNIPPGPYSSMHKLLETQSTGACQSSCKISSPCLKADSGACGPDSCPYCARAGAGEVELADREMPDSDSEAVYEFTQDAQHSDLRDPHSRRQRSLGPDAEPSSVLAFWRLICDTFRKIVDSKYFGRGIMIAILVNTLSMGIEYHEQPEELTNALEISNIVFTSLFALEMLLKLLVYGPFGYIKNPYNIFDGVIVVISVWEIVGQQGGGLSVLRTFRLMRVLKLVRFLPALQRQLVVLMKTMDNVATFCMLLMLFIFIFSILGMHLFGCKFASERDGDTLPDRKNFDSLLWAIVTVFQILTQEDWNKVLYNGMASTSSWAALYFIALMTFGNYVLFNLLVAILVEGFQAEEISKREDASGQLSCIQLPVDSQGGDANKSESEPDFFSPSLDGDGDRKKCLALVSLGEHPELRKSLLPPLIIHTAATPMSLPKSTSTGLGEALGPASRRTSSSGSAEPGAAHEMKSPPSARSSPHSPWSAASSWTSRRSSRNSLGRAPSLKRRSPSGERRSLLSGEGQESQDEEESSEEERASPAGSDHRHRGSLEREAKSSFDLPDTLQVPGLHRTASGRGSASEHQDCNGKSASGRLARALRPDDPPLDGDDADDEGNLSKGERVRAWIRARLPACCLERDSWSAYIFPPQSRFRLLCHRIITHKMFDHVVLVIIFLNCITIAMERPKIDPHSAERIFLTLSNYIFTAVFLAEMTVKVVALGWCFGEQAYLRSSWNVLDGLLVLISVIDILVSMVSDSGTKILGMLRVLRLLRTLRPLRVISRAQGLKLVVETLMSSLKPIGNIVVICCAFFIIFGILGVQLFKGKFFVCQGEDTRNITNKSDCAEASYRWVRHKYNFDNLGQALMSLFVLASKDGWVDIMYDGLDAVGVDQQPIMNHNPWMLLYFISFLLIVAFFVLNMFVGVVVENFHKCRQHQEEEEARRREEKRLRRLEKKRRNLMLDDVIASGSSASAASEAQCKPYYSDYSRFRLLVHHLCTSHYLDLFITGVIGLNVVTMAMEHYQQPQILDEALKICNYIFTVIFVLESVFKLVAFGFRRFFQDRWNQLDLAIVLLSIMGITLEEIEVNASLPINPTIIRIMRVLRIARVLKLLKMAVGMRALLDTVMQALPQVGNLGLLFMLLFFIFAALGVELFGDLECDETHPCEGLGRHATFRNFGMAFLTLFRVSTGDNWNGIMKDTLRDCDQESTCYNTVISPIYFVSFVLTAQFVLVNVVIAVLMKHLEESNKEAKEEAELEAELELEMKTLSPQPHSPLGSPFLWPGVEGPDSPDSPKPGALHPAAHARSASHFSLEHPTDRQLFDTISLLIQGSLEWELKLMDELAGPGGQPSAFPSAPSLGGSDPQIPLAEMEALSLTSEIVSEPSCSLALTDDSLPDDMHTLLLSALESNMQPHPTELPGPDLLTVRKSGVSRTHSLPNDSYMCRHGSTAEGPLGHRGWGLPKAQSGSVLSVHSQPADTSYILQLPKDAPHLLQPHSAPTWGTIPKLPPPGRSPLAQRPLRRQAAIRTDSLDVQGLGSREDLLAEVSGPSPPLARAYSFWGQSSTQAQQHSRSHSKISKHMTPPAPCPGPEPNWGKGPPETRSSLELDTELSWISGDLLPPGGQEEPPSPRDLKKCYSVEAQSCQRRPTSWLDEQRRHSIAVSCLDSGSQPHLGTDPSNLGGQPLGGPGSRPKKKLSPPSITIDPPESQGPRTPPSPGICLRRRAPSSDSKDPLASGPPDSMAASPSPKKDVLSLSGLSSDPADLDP
Experimental: (§1) The T-type calcium channel blocking activity of the compounds of this invention may be readily determined using the methodology well known in the art described by Xia, et al., Assay and Drug Development Tech., 1 (5), 637-645 (2003).
(§2) In a typical experiment ion channel function from HEK 293 cells expressing the T-type channel alpha-1G, H, or I (CaV 3.1, 3.2, 3.3) is recorded to determine the activity of compounds in blocking the calcium current mediated by the T-type channel alpha-1G, H, or I (CaV 3.1, 3.2, 3.3). In this T-type calcium (Ca^2+) antagonist voltage-clamp assay calcium currents are elicited from the resting state of the human alpha-1G, H, or I (CaV 3.1, 3.2, 3.3) calcium channel as follows. Sequence information for T-type (Low-voltage activated) calcium channels are fully disclosed in e.g., U.S. Pat. No. 5,618,720, U.S. Pat. No. 5,686,241, U.S. Pat. No. 5,710,250,U.S. Pat. No. 5,726,035, U.S. Pat. No. 5,792,846, U.S. Pat. No. 5,846,757, U.S. Pat. No. 5,851,824, U.S. Pat. No. 5,874,236, U.S. Pat. No. 5,876,958, U.S. Pat. No. 6,013,474, U.S. Pat. No. 6,057,114, U.S. Pat. No. 6,096,514, WO 99/28342, and J. Neuroscience, 19 (6):1912-1921 (1999). Cells expressing the t-type channels were grown in H3D5 growth media which is comprised DMEM, 6% bovine calf serum (HYCLONE), 30 micromolar Verapamil, 200 microgram/ml Hygromycin B, 1× Penicillin/Streptomycin. Glass pipettes are pulled to a tip diameter of 1-2 micrometer on a pipette puller. The pipettes are filled with the intracellular solution and a chloridized silver wire is inserted along its length, which is then connected to the headstage of the voltage-clamp amplifier. Trypsinization buffer was 0.05% Trypsin, 0.53 mM EDTA. The extracellular recording solution consists of (mM): 130 mM NaCl, 4 mM KCl, 1 mM MgCl2, 2 mM CaCl2, 10 mM HEPES, 30 Glucose, pH 7.4. The internal solution consists of (mM): 135 mM CsMeSO4, 1 MgCl2, 10 CsCl, 5 EGTA, 10 HEPES, pH 7.4, or 135 mM CsCl, 2 MgCl2, 3 MgATP, 2 Na2ATP, 1 Na2GTP, 5 EGTA, 10 HEPES, pH 7.4. Upon insertion of the pipette tip into the bath, the series resistance is noted (acceptable range is between 1-4 megaohm). The junction potential between the pipette and bath solutions is zeroed on the amplifier. The cell is then patched, the patch broken, and, after compensation for series resistance (>=80%), the voltage protocol is applied while recording the whole cell Ca2+ current response. Voltage protocols: (1) −80 mV holding potential every 20 seconds pulse to −20 mV for 40 msec duration; the effectiveness of the drug in inhibiting the current mediated by the channel is measured directly from measuring the reduction in peak current amplitude initiated by the voltage shift from −80 mV to −20 mV; (2). −100 mV holding potential every 15 seconds pulse to −20 mV for 40 msec duration; the effectiveness of the drug in inhibiting the current mediated by the channel is measured directly from measuring the reduction in peak current amplitude initiated by the shift in potential from −100 mV to […]. The difference in block at the two holding potentials was used to determine the effect of drug at differing levels of inactivation induced by the level of resting state potential of the cells. After obtaining control baseline calcium currents, extracellular solutions containing increasing concentrations of a test compound are washed on. Once steady state inhibition at a given compound concentration is reached, a higher concentration of compound is applied. % inhibition of the peak inward control Ca2+ current during the depolarizing step to −20 mV is plotted as a function of compound concentration.

[2] = molecular target: T3, Cav3.2 (T-type channel alpha-1H) (Homo sapiens, UniProt O95180); test: T-type calcium channel voltage-clamp assay, Cav3.2; settings: read-out: Cav 3.2 IC50
T3 construct: expressed in transfected cells; host or cells: HEK 293
T3 sequence (O95180 whole entry): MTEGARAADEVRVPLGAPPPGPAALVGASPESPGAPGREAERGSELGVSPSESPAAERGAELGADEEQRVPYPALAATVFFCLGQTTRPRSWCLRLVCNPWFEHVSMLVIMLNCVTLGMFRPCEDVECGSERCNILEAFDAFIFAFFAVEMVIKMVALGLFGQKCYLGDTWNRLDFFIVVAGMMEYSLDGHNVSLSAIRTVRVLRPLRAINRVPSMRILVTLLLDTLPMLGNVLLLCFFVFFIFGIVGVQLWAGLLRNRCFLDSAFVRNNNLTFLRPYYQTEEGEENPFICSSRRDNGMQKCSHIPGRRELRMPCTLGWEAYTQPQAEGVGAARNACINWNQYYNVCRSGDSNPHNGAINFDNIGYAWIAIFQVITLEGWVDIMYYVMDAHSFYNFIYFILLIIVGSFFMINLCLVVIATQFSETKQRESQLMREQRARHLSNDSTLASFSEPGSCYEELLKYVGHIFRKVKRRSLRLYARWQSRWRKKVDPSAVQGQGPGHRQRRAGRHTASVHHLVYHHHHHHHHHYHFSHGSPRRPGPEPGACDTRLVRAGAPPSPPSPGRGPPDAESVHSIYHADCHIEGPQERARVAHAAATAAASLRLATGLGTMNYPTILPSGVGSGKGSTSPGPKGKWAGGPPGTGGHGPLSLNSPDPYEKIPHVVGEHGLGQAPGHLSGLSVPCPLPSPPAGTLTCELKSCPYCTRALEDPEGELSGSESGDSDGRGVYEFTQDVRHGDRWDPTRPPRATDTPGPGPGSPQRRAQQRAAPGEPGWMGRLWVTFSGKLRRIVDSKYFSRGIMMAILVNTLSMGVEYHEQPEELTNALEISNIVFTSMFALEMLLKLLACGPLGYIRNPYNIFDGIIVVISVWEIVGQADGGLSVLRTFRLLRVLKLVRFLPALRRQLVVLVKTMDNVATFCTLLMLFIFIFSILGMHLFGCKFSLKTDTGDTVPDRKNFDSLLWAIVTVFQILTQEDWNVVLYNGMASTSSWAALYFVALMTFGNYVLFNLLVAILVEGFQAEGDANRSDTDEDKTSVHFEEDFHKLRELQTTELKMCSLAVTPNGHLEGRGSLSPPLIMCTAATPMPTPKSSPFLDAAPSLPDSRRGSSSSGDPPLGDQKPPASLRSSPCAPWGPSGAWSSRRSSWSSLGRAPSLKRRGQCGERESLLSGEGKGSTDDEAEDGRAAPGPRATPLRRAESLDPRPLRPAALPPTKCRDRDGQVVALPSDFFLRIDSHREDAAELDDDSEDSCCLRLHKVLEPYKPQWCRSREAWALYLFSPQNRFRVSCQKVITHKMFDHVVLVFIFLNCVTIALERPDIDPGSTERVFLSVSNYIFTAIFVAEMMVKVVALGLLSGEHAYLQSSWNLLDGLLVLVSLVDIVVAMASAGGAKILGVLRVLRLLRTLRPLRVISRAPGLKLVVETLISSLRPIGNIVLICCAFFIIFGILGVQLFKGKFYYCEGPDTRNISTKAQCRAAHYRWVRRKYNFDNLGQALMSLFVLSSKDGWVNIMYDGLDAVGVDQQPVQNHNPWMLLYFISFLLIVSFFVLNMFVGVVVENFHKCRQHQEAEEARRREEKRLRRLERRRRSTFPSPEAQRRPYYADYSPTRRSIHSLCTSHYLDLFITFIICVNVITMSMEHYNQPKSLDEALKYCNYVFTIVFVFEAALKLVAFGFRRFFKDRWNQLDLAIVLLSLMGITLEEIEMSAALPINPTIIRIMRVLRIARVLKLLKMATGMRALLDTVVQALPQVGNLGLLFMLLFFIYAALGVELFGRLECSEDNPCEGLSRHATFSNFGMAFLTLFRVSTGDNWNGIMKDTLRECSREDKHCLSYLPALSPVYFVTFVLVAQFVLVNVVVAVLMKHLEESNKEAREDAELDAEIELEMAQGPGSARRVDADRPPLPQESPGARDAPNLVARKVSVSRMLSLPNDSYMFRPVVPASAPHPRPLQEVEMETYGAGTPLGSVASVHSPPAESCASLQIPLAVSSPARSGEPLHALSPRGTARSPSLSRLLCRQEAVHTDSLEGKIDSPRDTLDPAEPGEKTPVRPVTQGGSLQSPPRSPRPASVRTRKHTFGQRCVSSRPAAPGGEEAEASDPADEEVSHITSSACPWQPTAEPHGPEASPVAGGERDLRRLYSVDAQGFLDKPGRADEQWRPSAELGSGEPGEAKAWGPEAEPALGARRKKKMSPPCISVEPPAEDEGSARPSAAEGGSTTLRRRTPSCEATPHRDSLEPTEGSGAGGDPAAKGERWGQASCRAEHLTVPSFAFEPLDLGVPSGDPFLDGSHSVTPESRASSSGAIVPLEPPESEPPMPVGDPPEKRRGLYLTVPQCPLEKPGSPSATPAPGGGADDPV
Experimental: as §1, §2

SMILES | inhibition at 10 µM (Human Cav2.2 channels) | inhibition at 30 µM (Human Cav2.2 channels) | IC50 (Human Cav2.2 channels) | IC50 [1] | IC50 [2]
CC(C)(C)c1cc(N2CCN(C(=O)c3ccc(OCC(F)(F)F)nc3)CC2)cc(C(C)(C)C)c1 [Compound 47, (4-(3,5-di-tert-butylphenyol)piperazin-1-yl)(6-(2,2,2-trifluoroethoxy)pyridin-3-yl)methanone] | 101% | 104% | 1480 nM | 490 nM | 800 nM
CC(C)(C)C(=O)Nc1ccncc1C(=O)N1CCN(c2cc(C(C)(C)C)cc(C(C)(C)C)c2)CC1 [Compound 7, N-(3-(4-(3,5-di-tert-butylphenyl)piperazine-1-carbonyl)pyridin-4-yl)pivalamide] | 97% | 96% | 300 nM | 470 nM | 660 nM
CCn1nc(C)cc1C(=O)N1CCN(c2cc(C(C)(C)C)cc(C(C)(C)C)c2)CC1 [Compound 33, (4-(3,5-di-tert-butylphenyl)piperazin-1-yl)(1-ethyl-3-methyl-1H-pyrazol-5-yl)methanone] | 97% | 95% | 830 nM | 2340 nM | 2520 nM
Cc1nc(C(=O)N2CCN(c3cc(C(C)(C)C)cc(C(C)(C)C)c3)CC2)c(C(F)(F)F)o1 [Compound 37, (4-(3,5-di-tert-butylphenyl)piperazin-1-yl)(2-methyl-5-(trifluoromethyl)oxazol-4-yl)methanone] | 94% | 101% | 550 nM | 2040 nM | 2290 nM
Cc1ccc(OCC(=O)N2CCN(c3cc(C(C)(C)C)cc(C(C)(C)C)c3)CC2)c(C)c1 [Compound 14, 1-(4-(3,5-di-tert-butylphenyl)piperazin-1-yl)-2-(2,4-dimethylphenoxy)ethanone] | 86% | 93% | 1370 nM | 1280 nM | 1110 nM
CC(C)(C)c1cc(N2CCN(C(=O)COc3ccc(F)cc3)CC2)cc(C(C)(C)C)c1 [Compound 13, 1-(4-(3,5-di-tert-butylphenyl)piperazin-1-yl)-2-(4-fluorophenoxy)ethanone] | 97% | 97% | 620 nM | 600 nM | 680 nM
CCOc1ncccc1C(=O)N1CCN(c2cc(C(C)(C)C)cc(C(C)(C)C)c2)CC1 [Compound 38, (4-(3,5-di-tert-butylphenyl)piperazin-1-yl)(2-ethoxypyridin-3-yl)methanone] | 107% | 98% | 850 nM | 1490 nM | 2230 nM
CC(C)(C)c1cc(N2CCN(C(=O)c3ccc(F)cc3)CC2)cc(C(C)(C)C)c1 [Compound 4, (4-(3,5-di-tert-butylphenyl)piperazin-1-yl)(4-fluorophenyl)methanone] | 92% | 97% | 2210 nM | 890 nM | 790 nM
CC(C)(C)c1cc(N2CCN(C(=O)c3ccc(C(C)(C)C)s3)CC2)cc(C(C)(C)C)c1 [Compound 34, (5-tert-butylthiophen-2-yl)(4-(3,5-di-tert-butylphenyl)piperazin-1-yl)methanone] | 52% | 59% | – | – | –
CC(C)(C)c1cc(N2CCN(C(=O)c3cc(C4CC4)nc4ccccc34)CC2)cc(C(C)(C)C)c1 [Compound 40, (2-cyclopropylquinolin-4-yl)(4-(3,5-di-tert-butylphenyl)piperazin-1-yl)methanone] | 86% | 91% | – | – | –
CC(C)(C)c1cc(N2CCN(C(=O)c3scc(S(C)(=O)=O)c3Cl)CC2)cc(C(C)(C)C)c1 [Compound 6, (3-chloro-4-(methylsulfonyl)thiophen-2-yl)(4-(3,5-di-tert-butylphenyl)piperazin-1-yl)methanone] | 86% | 95% | – | – | –
CC(C)(C)c1cc(N2CCN(C(=O)c3cc(S(C)(=O)=O)ccc3Cl)CC2)cc(C(C)(C)C)c1 [Compound 25, (2-chloro-5-(methylsulfonyl)phenyl)(4-(3,5-di-tert-butylphenyl)piperazin-1-yl)methanone] | 89% | 99% | – | – | –
